Measured values reported in the supplement of paper PMC10307832.

How the values were obtained:
Assay in all cases: relative viability (nuclei count vs DMSO), 5 days (fraction); higher = more cells survive
[1] = test system: NCI-H23
Method in brief: (§1)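 The day after seeding in 1536-well plates, lung cancer cell lines were treated by pin tool with a single drug, or with a fixed anchor-drug dose together with five library-drug doses (not always all listed) in √10 steps. After 5 days, a combined fix-and-stain solution (final 0.05% Triton X-100, 1% formaldehyde, 1 ug/ml Hoechst) was added. Nuclei counted on 4× images gave relative viability as treated counts over vehicle counts, reported as the median of duplicate plates.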

[2] = test system: NCI-H1993
Method in brief: as §1

[3] = test system: LK-2
Method in brief: as §1

[4] = test system: NCI-H1666
Method in brief: as §1

[5] = test system: PC-14
Method in brief: as §1

[6] = test system: NCI-H2405
Method in brief: as §1

[7] = test system: NCI-H2170
Method in brief: as §1

[8] = test system: NCI-H3122
Method in brief: as §1

[9] = test system: NCI-H1755
Method in brief: as §1

[10] = test system: ABC-1
Method in brief: as §1

[11] = test system: LU99A
Method in brief: as §1

[12] = test system: NCI-H1437
Method in brief: as §1

[13] = test system: NCI-H1793
Method in brief: as §1

[14] = test system: HARA
Method in brief: as §1

[15] = test system: NCI-H2085
Method in brief: as §1

[16] = test system: RERF-LC-KJ
Method in brief: as §1

[17] = test system: LXF-289
Method in brief: as §1

[18] = test system: LCLC-103H
Method in brief: as §1

[19] = test system: LOU-NH91
Method in brief: as §1

[20] = test system: BEN
Method in brief: as §1

[21] = test system: NCI-H2342
Method in brief: as §1

[22] = test system: A-427
Method in brief: as §1

With `Oc1nc(-c2ccc(C(F)(F)F)cc2)nc2c1CSCC2` [XAV939] + NC(=O)Nc1cc(-c2cccc(F)c2)sc1C(=O)N[C@H]1CCCNC1 [AZD7762] (partner 0.2 µM) the relative viability ([1]; first compound 0.08 µM) was 0.393, the relative viability ([1]; first compound 0.8 µM) was 0.195 and the relative viability ([1]; first compound 2.53 µM) was 0.238. It also gave a relative viability ([2]; first compound 0.08 µM) of 0.923, a relative viability ([2]; first compound 0.253 µM) of 0.569 and a relative viability ([2]; first compound 0.8 µM) of 0.62. It also gave a relative viability ([2]; first compound 2.53 µM) of 0.653, a relative viability ([3]; first compound 0.08 µM) of 0.375 and a relative viability ([3]; first compound 0.253 µM) of 0.429. It also gave a relative viability ([3]; first compound 0.8 µM) of 0.344, a relative viability ([3]; first compound 2.53 µM) of 0.238 and a relative viability ([4]; first compound 0.08 µM) of 0.885. It also gave a relative viability ([4]; first compound 0.253 µM) of 0.656, a relative viability ([4]; first compound 0.8 µM) of 0.735 and a relative viability ([4]; first compound 2.53 µM) of 0.621. The relative viability ([5]; first compound 0.08 µM) was 0.352, the relative viability ([5]; first compound 0.253 µM) was 0.333 and the relative viability ([5]; first compound 0.8 µM) was 0.304. For the same molecule, the relative viability ([5]; first compound 2.53 µM) was 0.345, the relative viability ([6]; first compound 0.08 µM) was 0.701 and the relative viability ([6]; first compound 0.253 µM) was 0.731. The relative viability ([6]; first compound 0.8 µM) was 0.672, the relative viability ([6]; first compound 2.53 µM) was 0.569 and the relative viability ([7]; first compound 0.08 µM) was 0.867. The relative viability ([7]; first compound 0.253 µM) was 0.692, the relative viability ([7]; first compound 0.8 µM) was 0.823 and the relative viability ([7]; first compound 2.53 µM) was 0.532. For the same molecule, the relative viability ([8]; first compound 0.08 µM) was 1.01, the relative viability ([8]; first compound 0.253 µM) was 0.964 and the relative viability ([8]; first compound 0.8 µM) was 0.9. It also gave a relative viability ([8]; first compound 2.53 µM) of 0.573, a relative viability ([9]; first compound 0.08 µM) of 0.394 and a relative viability ([9]; first compound 0.253 µM) of 0.501. It also gave a relative viability ([9]; first compound 0.8 µM) of 0.443, a relative viability ([9]; first compound 2.53 µM) of 0.458 and a relative viability ([10]; first compound 0.253 µM) of 0.537. The relative viability ([10]; first compound 0.8 µM) was 0.768, the relative viability ([10]; first compound 2.53 µM) was 0.676 and the relative viability ([11]; first compound 0.08 µM) was 0.495. The relative viability ([11]; first compound 0.253 µM) was 0.394, the relative viability ([11]; first compound 0.8 µM) was 0.339 and the relative viability ([11]; first compound 2.53 µM) was 0.32. For the same molecule, the relative viability ([12]; first compound 0.08 µM) was 1.17, the relative viability ([12]; first compound 0.253 µM) was 1.07 and the relative viability ([12]; first compound 0.8 µM) was 1.1. For the same molecule, the relative viability ([12]; first compound 2.53 µM) was 1.02, the relative viability ([13]; first compound 0.08 µM) was 0.989 and the relative viability ([13]; first compound 0.253 µM) was 0.307. The relative viability ([13]; first compound 0.8 µM) was 0.355, the relative viability ([13]; first compound 2.53 µM) was 0.312 and the relative viability ([14]; first compound 0.08 µM) was 0.671. The relative viability ([14]; first compound 0.253 µM) was 0.305, the relative viability ([14]; first compound 0.8 µM) was 0.271 and the relative viability ([14]; first compound 2.53 µM) was 0.294. It also gave a relative viability ([15]; first compound 0.08 µM) of 1.07, a relative viability ([15]; first compound 0.253 µM) of 0.876 and a relative viability ([15]; first compound 0.8 µM) of 0.896. The relative viability ([15]; first compound 2.53 µM) was 0.881, the relative viability ([16]; first compound 0.08 µM) was 0.925 and the relative viability ([16]; first compound 0.253 µM) was 0.711. For the same molecule, the relative viability ([16]; first compound 0.8 µM) was 0.848, the relative viability ([16]; first compound 2.53 µM) was 0.69 and the relative viability ([17]; first compound 0.08 µM) was 1.16. It also gave a relative viability ([17]; first compound 0.253 µM) of 1.04, a relative viability ([17]; first compound 0.8 µM) of 1.1 and a relative viability ([17]; first compound 2.53 µM) of 1.21. It also gave a relative viability ([18]; first compound 0.08 µM) of 0.869, a relative viability ([18]; first compound 0.253 µM) of 0.719 and a relative viability ([18]; first compound 0.8 µM) of 0.792. For the same molecule, the relative viability ([18]; first compound 2.53 µM) was 0.68, the relative viability ([19]; first compound 0.08 µM) was 0.762 and the relative viability ([19]; first compound 0.253 µM) was 0.681. The relative viability ([19]; first compound 0.8 µM) was 0.687, the relative viability ([19]; first compound 2.53 µM) was 0.692 and the relative viability ([20]; first compound 0.08 µM) was 0.629. It also gave a relative viability ([20]; first compound 0.253 µM) of 0.651, a relative viability ([20]; first compound 0.8 µM) of 0.619 and a relative viability ([20]; first compound 2.53 µM) of 0.597. The relative viability ([21]; first compound 0.08 µM) was 0.425, the relative viability ([21]; first compound 0.253 µM) was 0.443 and the relative viability ([21]; first compound 0.8 µM) was 0.401. The relative viability ([21]; first compound 2.53 µM) was 0.345, the relative viability ([22]; first compound 0.08 µM) was 0.816 and the relative viability ([22]; first compound 0.253 µM) was 0.684. For the same molecule, the relative viability ([22]; first compound 0.8 µM) was 0.706 and the relative viability ([22]; first compound 2.53 µM) was 0.696.
